Measurements: patent WO2007139036A1, “Compound for controlling endoplasmic reticulum stress, and pharmaceutical composition comprising the compound as active ingredient” (Meiji Dairies Corp, priority 2006, dated 2007)

How the values were obtained:
[1] = tested on: rat Parkinson disease model; conditions: cited from earlier work
[2] = tested on: kidney (proximal) tubule cells; test: Third screening: mouse endoplasmic reticulum stress model (tunicamycin), kidney tubules, HE and TUNEL; format: in vivo; conditions: 10 mg/kg/day intraperitoneal daily for 4 days before tunicamycin 1 mg/kg
GRP78 = GRP78 expression by Northern blot, MIN6 cells; format: cell-based, mouse
XBP1 = XBP1 activation by RT-PCR, MIN6 cells; format: cell-based, mouse
heme-oxygenase 1 (HO-1) = test: HO-1 expression by Northern blot, MIN6 cells; format: cell-based, mouse
CHOP = CHOP expression by Northern blot, MIN6 cells; format: cell-based, mouse
MIN6 cells [3] = test: Secondary screening: oxidative stress (H2O2)-derived cell death suppression, MIN6 cells; format: cell-based, mouse; parameters: key to oxidative stress-derived cell death inhibitory effect (class symbol): 一: 細胞死抑制効果無し; +: その中間程度の抑制効果を有する; ++: ダントロ レンの細胞死抑制効果と同程度; conditions: H2O2 66 μM, 24 h; for oxidative stress-derived cell death inhibitory effect, compared with N-acetylcysteine (NAC): NAC 1000 μM
MIN6 cells [4] = test: Intracellular protein synthesis by metabolic labeling (35S-Met), MIN6 cells; format: cell-based, mouse; conditions: incubated for more than 24 hours
[5] = other models; cited from earlier work
[6] = Patent Document 1 (JP 2005-247728); cited from earlier work
[7] = pre-administration from 24 h before H2O2 and simultaneous administration

COc1ccc(-c2cc(=O)c3c(OC)c(OC)c(OC)c(OC)c3o2)cc1 [IN19, tangeretin]
neuroprotective activity [1]: neuroprotective
tissue damage in renal tubules ([2]; kidney on day 4 after tunicamycin): ほぼ完全に抑制された
cell death in renal tubules ([2]; kidney on day 4 after tunicamycin (TUNEL)): ほぼ完全に抑制された
expression of GRP78 (GRP78): at least not increased
activation of XBP1 (XBP1): involves administration of IN19
expression of heme-oxygenase 1 (HO-1) (heme-oxygenase 1 (HO-1)): also increased
expression of CHOP (CHOP): also increased
oxidative stress-derived cell death inhibitory effect, compared with N-acetylcysteine (NAC) (MIN6 cells [3]): 効果はやや小さかった
oxidative stress-derived cell death inhibitory effect, compared with α-tocopherol and β-carotene (MIN6 cells [3]; [7]): 同程度の効果が認められた
intracellular protein synthesis (decreased to) (MIN6 cells [4]): about 60%

COc1ccc(-c2cc(=O)c3c(OC)c(OC)c(OC)c(OC)c3o2)cc1OC [IN69, nobiletin]
neuroprotective activity [5]: neuroprotective
oxidative stress-derived cell death inhibitory effect (class symbol) (MIN6 cells [3]; [7]): 士

COc1ccc(-c2cc(=O)c3c(OC)c(OC)c(OC)cc3o2)cc1OC [IN88, sinensetin]
oxidative stress-derived cell death inhibitory effect, compared with N-acetylcysteine (NAC) (MIN6 cells [3]): 効果はやや小さかった
oxidative stress-derived cell death inhibitory effect, compared with α-tocopherol and β-carotene (MIN6 cells [3]; [7]): 同程度の効果が認められた

O=c1cc(-c2ccccc2)oc2ccccc12 [flavone]
oxidative stress-derived cell death inhibitory effect, compared with N-acetylcysteine (NAC) (MIN6 cells [3]): 効果はやや小さかった
oxidative stress-derived cell death inhibitory effect, compared with α-tocopherol and β-carotene (MIN6 cells [3]; [7]): 同程度の効果が認められた

CCCCCC=CCC=CCCCCCCCC(=O)OCC(COP(=O)(O)OCCN)OC(=O)CCCCCCCC=CCC=CCCCCC (stereo not drawn) [ジリノレオイルホスファチジルエタノールァミン, dilinoleoylphosphatidylethanolamine]
cell death induction suppressing activity [6]: 細胞死誘導抑制活性
endoplasmic reticulum stress suppressing activity [6]: 小胞体ストレス抑制活性
